For 22 molecules, Ki results are on record in patent US10981894B2, “Melanocortin subtype-2 receptor (MC2R) antagonists and uses thereof” (Crinetics Pharmaceuticals, Inc., priority 2018, dated 2021).

Each structure is given as a SMILES string. Bounds are passed on as bounds.

Sequence of hMC2 receptor (Q01718 whole entry): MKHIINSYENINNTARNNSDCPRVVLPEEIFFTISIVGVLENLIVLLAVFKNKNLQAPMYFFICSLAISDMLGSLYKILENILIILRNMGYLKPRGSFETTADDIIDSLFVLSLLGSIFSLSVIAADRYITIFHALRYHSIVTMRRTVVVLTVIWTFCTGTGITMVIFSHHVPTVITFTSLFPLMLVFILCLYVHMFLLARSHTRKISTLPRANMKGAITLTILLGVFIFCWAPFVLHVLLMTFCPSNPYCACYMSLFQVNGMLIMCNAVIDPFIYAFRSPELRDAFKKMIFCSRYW
Sequence of hMC2 receptor (Q8TCY5 whole entry partner): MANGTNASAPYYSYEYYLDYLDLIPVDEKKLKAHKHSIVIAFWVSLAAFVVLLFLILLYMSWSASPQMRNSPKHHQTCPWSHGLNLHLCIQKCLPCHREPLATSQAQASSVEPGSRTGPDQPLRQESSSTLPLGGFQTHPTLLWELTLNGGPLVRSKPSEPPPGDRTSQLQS

For this assay, the target named is hMC2 receptor (Homo sapiens, UniProt Q01718). In words: hMC2 membrane binding assay ([125I]ACTH (1-39) Tyr23, SPA). The settings on record: crude hMC2R membranes from CRE-bla-CHO-K1 cells expressing hMC2 receptor and hMRAP; [125I]ACTH (1-39) Tyr23 0.2 nM; 1.5 hours at room temperature; read-out: MC2R binding potency. Details: scale not given here. An outline of the steps:
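CRE-bla-CHO-K1 membranes co-expressing hMC2 receptor and hMRAP, preincubated with WGA PVT SPA beads in pH 7.4 HEPES/MgCl2/CaCl2/0.2% BSA buffer. Compounds (typically 0–10,000 nM final) compete with 0.2 nM [125I]ACTH(1-39) Tyr23 for 1.5 h at room temperature. SPA counts give Ki by non-linear regression.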
Take `CCOc1ncccc1-c1ccc(N2CCN(C(=O)n3ccc4cccc(C(F)(F)F)c43)C[C@H]2CC)c(C(=O)N[C@@H]2CCN(C)C2)n1` [Compound 1-436, 2′-ethoxy-5-[(2R)-2-ethyl-4-[7-(trifluoromethyl)-1H-indole-1l-carbonyl]piperazin-1-yl]-N-[(3R)-1-methylpyrrolidin-3-yl]-[2,3′-bipyridine]-6-carboxamide]: the Ki is less than 10 nM. With `CCOc1ncccc1-c1ccc(N2CCN(C(=O)N3CCc4cc(F)cc(C#N)c43)C[C@H]2CC)c(C(=O)N[C@H]2CCN(C)C2)n1` [Compound 1-423, 5-[(2R)-4-(7-cyano-5-fluoro-2,3-dihydro-1H-indole-1-carbonyl)-2-ethylpiperazin-1-yl]-2′-ethoxy-N-[(3S)-1-methylpyrrolidin-3-yl]-[2,3′-bipyridine]-6-carboxamide], the Ki was less than 10 nM.

For `CCOc1ncccc1-c1ccc(N2CCN(C(=O)c3ccc(Cl)cc3C(F)(F)F)C[C@H]2CC)c(C(=O)N[C@@H]2CCNC2)n1` [Compound 1-151, 5-[(2R)-4-[4-chloro-2-(trifluoromethyl)benzoyl]-2-ethylpiperazin-1-yl]-2′-ethoxy-N-[(3R)-pyrrolidin-3-yl]-[2,3′-bipyridine]-6-carboxamide], the Ki was less than 10 nM. Next, `CCOc1ncccc1-c1ccc(N2CCN(C(=O)c3ccc(Cl)cc3C(F)(F)F)C[C@H]2CC)c(C(=O)N[C@@H]2CCNC2)c1` [Compound 1-45, 2-[(2R)-4-[4-chloro-2-(trifluoromethyl)benzoyl]-2-ethylpiperazin-1-yl]-5-(2-ethoxypyridin-3-yl)-N-[(3R)-pyrrolidin-3-yl]benzamide]: less than 10 nM; `CCOc1ncccc1-c1ccc(N2CCN(C(=O)c3ccc(F)cc3C(F)(F)F)C[C@H]2CC)c(C(=O)NCC2=NCCN2)c1F` [Compound 1-182, N-[(4,5-dihydro-1H-imidazol-2-yl)methyl]-3-(2-ethoxypyridin-3-yl)-6-[(2R)-2-ethyl-4-[4-fluoro-2-(trifluoromethyl)benzoyl]piperazin-1-yl]-2-fluorobenzamide]: less than 10 nM; `CCOc1ncccc1-c1ccc(N2CCN(C(=O)O[C@H](C(C)(C)C)C(F)(F)F)C[C@H]2CC)c(C(=O)N[C@@H]2CCN(C)C2)n1` (single isomer, unassigned) [Compound 1-406]: less than 10 nM. With `CCOc1ncccc1-c1ccc(N2CCN(C(=O)c3ccc(OC)cc3C(F)(F)F)C[C@H]2CC)c(C(=O)NC2CNC2)c1F` [Compound 1-202, N-(azetidin-3-yl)-3-(2-ethoxypyridin-3-yl)-6-[(2R)-2-ethyl-4-[4-methoxy-2-(trifluoromethyl)benzoyl]piperazin-1-yl]-2-fluorobenzamide] the figure was less than 10 nM; with `CCOc1ncccc1-c1ccc(N2CCN(C(=O)C3(CC(F)F)CCC3)C[C@H]2CC)c(C(=O)N[C@@H]2CCNC2)n1` [Compound 1-328, 5-[(2R)-4-[1-(2,2-difluoroethyl)cyclobutanecarbonyl]-2-ethylpiperazin-1-yl]-2′-ethoxy-N-[(3R)-pyrrolidin-3-yl]-[2,3′-bipyridine]-6-carboxamide], less than 10 nM; with `CCOc1ncccc1-c1ccc(N2CCN(C(=O)N3CCc4cccc(F)c43)C[C@H]2CC)c(C(=O)N[C@@H]2CCNC2)n1` [Compound 1-350, 2′-ethoxy-5-[(2R)-2-ethyl-4-(7-fluoro-2,3-dihydro-1H-indole-1-carbonyl)piperazin-1-yl]-N-[(3R)-pyrrolidin-3-yl]-[2,3′-bipyridine]-6-carboxamide], less than 10 nM. Next, `CCOc1ncccc1-c1ccc(N2CCN(C(=O)c3ccc(Cl)cc3C(F)(F)F)C[C@H]2CC)c(C(=O)NC[C@@H]2CCN2C)n1` [Compound 1-232, 5-[(2R)-4-[4-chloro-2-(trifluoromethyl)benzoyl]-2-ethylpiperazin-1-yl]-2′-ethoxy-N-{[(2S)-1-methylazetidin-2-yl]methyl}-[2,3′-bipyridine]-6-carboxamide]: less than 10 nM; `CCOc1ccc(C(=O)N2CCN(c3ccc(-c4cccnc4OC)nc3C(=O)NC3CN(C)C3)[C@H](CC)C2)c(C(F)(F)F)n1` [Compound 1-247, 5-[(2R)-4-[6-ethoxy-2-(trifluoromethyl)pyridine-3-carbonyl]-2-ethylpiperazin-1-yl]-2′-methoxy-N-(1-methylazetidin-3-yl)-[2,3′-bipyridine]-6-carboxamide]: less than 10 nM. For the molecule `CCOc1ncccc1-c1ccc(N2CCN(C(=O)c3ccc(Cl)cc3C(F)(F)F)C[C@H]2CC)c(C(=O)NCCN2CC(F)C2)n1` [Compound 1-357, 5-[(2R)-4-[4-chloro-2-(trifluoromethyl)benzoyl]-2-ethylpiperazin-1-yl]-2′-ethoxy-N-[2-(3-fluoroazetidin-1-yl)ethyl]-[2,3′-bipyridine]-6-carboxamide], the Ki is less than 10 nM. Next, `CCOc1ncccc1-c1ccc(N2CCN(C(=O)c3ccc(Cl)cc3N3CC[C@H](N(C)C)C3)C[C@H]2CC)c(C(=O)N[C@@H]2CCNC2)c1` [Compound 1-115, 2-[(2R)-4-{4-chloro-2-[(3S)-3-(dimethylamino)pyrrolidin-1-yl]benzoyl}-2-ethylpiperazin-1-yl]-5-(2-ethoxypyridin-3-yl)-N-[(3R)-pyrrolidin-3-yl]benzamide]: less than 10 nM. Next, `CCOc1ncccc1-c1ccc(N2CCN(C(=O)c3ccc(C)cc3C(F)(F)F)C[C@H]2CC)c(C(=O)NCCN)c1` [Compound 1-59, N-(2-aminoethyl)-5-(2-ethoxypyridin-3-yl)-2-[(2R)-2-ethyl-4-[4-methyl-2-(trifluoromethyl)benzoyl]piperazin-1-yl]benzamide]: less than 10 nM; `CCOc1ncccc1-c1ccc(N2CCN(C(=O)C3(C(F)(F)F)CCCC3)C[C@H]2CC)c(C(=O)NC[C@H]2CCCN2)n1` [Compound 1-324, 2′-ethoxy-5-[(2R)-2-ethyl-4-[1-(trifluoromethyl)cyclopentanecarbonyl]piperazin-1-yl]-N-{[(2R)-pyrrolidin-2-yl]methyl}-[2,3′-bipyridine]-6-carboxamide]: less than 10 nM; `CCOc1ccccc1-c1ccc(N2CCN(C(=O)C3(C(F)(F)F)CCCC3)C[C@H]2CC)c(C(=O)NCC2CN(C)C2)n1` [Compound 1-340, 6-(2-ethoxyphenyl)-3-[(2R)-2-ethyl-4-[1-(trifluoromethyl)cyclopentanecarbonyl]piperazin-1-yl]-N-[(1-methylazetidin-3-yl)methyl]pyridine-2-carboxamide]: less than 10 nM. Next, `CCOc1ncccc1-c1ccc(N2CCN(C(=O)c3ccc(OC)cc3C(F)(F)F)C[C@H]2CC)c(C(=O)NCC2=NCCN2)c1F` [Compound 1-170, N-[(4,5-dihydro-1H-imidazol-2-yl)methyl]-3-(2-ethoxypyridin-3-yl)-6-[(2R)-2-ethyl-4-[4-methoxy-2-(trifluoromethyl)benzoyl]piperazin-1-yl]-2-fluorobenzamide]: less than 10 nM. In the case of `CC[C@@H]1CN(C(=O)c2ccc(C(F)(F)F)cc2Cl)CCN1c1ccc(-c2ccccc2F)cc1C(=O)NCCN` [Compound 1-4, N-(2-aminoethyl)-4-[(2R)-4-[2-chloro-4-(trifluoromethyl)benzoyl]-2-ethylpiperazin-1-yl]-2′-fluoro-[1,1′-biphenyl]-3-carboxamide], the Ki was in the range of 10 to 100 nM.

For the molecule `CCOc1ncccc1-c1ccc(N2CCN(C(=O)C34CCC(C(F)(F)F)(CC3)C4)C[C@H]2CC)c(C(=O)NCC2CN(C)C2)n1` [Compound 1-395, 2′-ethoxy-5-[(2R)-2-ethyl-4-[4-(trifluoromethyl)bicyclo[2.2.1]heptane-1-carbonyl]piperazin-1-yl]-N-[(1-methylazetidin-3-yl)methyl]-[2,3′-bipyridine]-6-carboxamide], the Ki is less than 10 nM. With `CCOc1ncccc1-c1ccc(N2CCN(C(=O)c3ccc(Cl)cc3C(F)(F)F)C[C@H]2CC)c(C(=O)NC2CN(C)C2)c1` [Compound 1-216, 2-[(2R)-4-[4-chloro-2-(trifluoromethyl)benzoyl]-2-ethylpiperazin-1-yl]-5-(2-ethoxypyridin-3-yl)-N-(1-methylazetidin-3-yl)benzamide] the figure was less than 10 nM; with `CCOc1ncccc1-c1ccc(N2CCN(C(=O)c3ccc(Cl)cc3Cl)C[C@H]2CC)c(C(=O)NCCN)c1` [Compound 1-42, N-(2-aminoethyl)-2-[(2R)-4-(2,4-dichlorobenzoyl)-2-ethylpiperazin-1-yl]-5-(2-ethoxypyridin-3-yl)benzamide], less than 10 nM; with `CCOc1ncccc1-c1ccc(N2CCN(C(=O)c3ccc(Cl)cc3C(F)(F)F)C[C@H]2CC)c(C(=O)N[C@H]2CCN(C)C2)n1` [Compound 1-215, 5-[(2R)-4-[4-chloro-2-(trifluoromethyl)benzoyl]-2-ethylpiperazin-1-yl]-2′-ethoxy-N-[(3S)-1-methylpyrrolidin-3-yl]-[2,3′-bipyridine]-6-carboxamide], less than 10 nM.
